Test results from patent US9096559B2, “4-carboxybenzylamino derivatives as histone deacetylase inhibitors” (Merck Sharp & Dohme Corp., priority 2007, dated 2015).

Key:
[1] = target: histone deacetylase, subtype 1 (HDAC1) (Homo sapiens (Human), UniProt Q13547); experiment: HDAC1-Flag in vitro deacetylation assay; assay type: biochemical; conditions: IP = inflection point; read-out: HDAC1 IP (inflection point)
Protocol: Novel compounds were tested for their ability to inhibit histone deacetylase, subtype 1 (HDAC1) using an in vitro deacetylation assay. The enzyme source for this assay was an epitope-tagged human HDAC1 complex immuno-purified from stably expressing mammalian cells. The substrate consisted of a commercial product containing an acetylated lysine side chain (BIOMOL Research Laboratories, Inc., Plymouth Meeting, Pa.). Upon deacetylation of the substrate by incubation with the purified HDAC1 complex, a fluorophore is produced that is directly proportional to the level of deacetylation.

[2] = test system: human cervical cancer (HeLa) and colon carcinoma (HCT116) cells; experiment: ATP (Vialight) cell proliferation assay, 72 hr; assay type: cell-based; conditions: IP = inflection point, cell line not given, read-out: Prol-72 hr IP (inflection point)
Protocol: The novel compounds of the present invention were tested for their ability to inhibit proliferation of the human cervical cancer (HeLa) and colon carcinoma (HCT116) cells.
In this assay, also referred to as the Vialight Assay, cellular ATP levels are measured as a means of quantifying cellular proliferation. This assay makes use of a bioluminescent method from Cambrex (ViaLight PLUS, cat. #LT07-121). In the presence of ATP, luciferase converts luciferin to oxyluciferin and light. The amount of light produced (emission at 565 nm) is measured and correlates with a relative amount of proliferation. Human cervical cancer (HeLa) or colon carcinoma (HCT116) cells were incubated with vehicle or increasing concentrations of compound for 48, 72 or 96 hours. Cell proliferation was quantified by adding the cell lysis reagent (provided in the Vialight assay kit) directly to culture wells, followed by addition of the ATP-monitoring reagent (containing luciferase/luciferin). The amount of light produced is then measured (emission at 565 nm). The quantity of light produced, as measured by […], is directly proportional to the number of living cells in culture.

histone deacetylase, subtype 1 (HDAC1), sequence (Q13547 whole entry): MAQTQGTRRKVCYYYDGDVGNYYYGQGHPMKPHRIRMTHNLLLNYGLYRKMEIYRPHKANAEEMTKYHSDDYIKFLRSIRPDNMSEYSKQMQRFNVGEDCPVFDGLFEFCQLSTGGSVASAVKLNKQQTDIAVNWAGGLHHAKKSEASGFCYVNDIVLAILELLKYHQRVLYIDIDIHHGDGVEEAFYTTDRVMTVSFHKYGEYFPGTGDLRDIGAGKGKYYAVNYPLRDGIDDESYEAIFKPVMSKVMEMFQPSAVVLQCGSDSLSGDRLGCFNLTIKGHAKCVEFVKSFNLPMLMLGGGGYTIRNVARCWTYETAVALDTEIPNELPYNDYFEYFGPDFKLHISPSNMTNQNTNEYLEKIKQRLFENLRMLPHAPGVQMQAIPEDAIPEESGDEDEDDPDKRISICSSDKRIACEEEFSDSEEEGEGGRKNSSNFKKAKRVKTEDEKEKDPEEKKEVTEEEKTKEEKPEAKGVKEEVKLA

Row | SMILES | IC50 [1] | IC50 [2]
1 | CC(C)(C)C(=O)NCc1ccc(C(=O)Nc2cc(-c3ccccc3)ccc2N)cc1 [Example 28, N-(4-aminobiphenyl-3-yl)-4-{[(2,2-dimethylpropanoyl)amino]methyl}benzamide] | 25 nM | 260 nM
2 | Nc1ccc(-c2ccccc2)cc1NC(=O)c1ccc(CNC(=O)C2CCC2)cc1 [Example 30, N-(4-aminobiphenyl-3-yl)-4-{[(cyclobutylcarbonyl)amino]methyl}benzamide] | 23 nM | 220 nM
3 | Nc1ccc(-c2ccccc2)cc1NC(=O)c1ccc(CNC(=O)C2CCCCC2)cc1 [Example 32, N-(4-aminobiphenyl-3-yl)-4-{[(cyclohexylcarbonyl)amino]methyl}benzamide] | 42 nM | 340 nM
4 | Nc1ccc(-c2ccccc2)cc1NC(=O)c1ccc(CNC(=O)C2CCCC2)cc1 [Example 33, N-(4-aminobiphenyl-3-yl)-4-{[(cyclopentylcarbonyl)amino]methyl}benzamide] | 21 nM | 200 nM
5 | Nc1ccc(-c2ccccc2)cc1NC(=O)c1ccc(CNC(=O)Cc2ccccc2)cc1 [Example 34, N-(4-aminobiphenyl-3-yl)-4-{[(phenylacetyl)amino]methyl}benzamide] | 72 nM | 310 nM
6 | Nc1ccc(-c2ccccc2)cc1NC(=O)c1ccc(CNC(=O)c2ccccc2)cc1 [Example 35, N-(4-aminobiphenyl-3-yl)-4-{[(phenylcarbonyl)amino]methyl}benzamide] | 19 nM | 160 nM
7 | CC(C)C(=O)NCc1ccc(C(=O)Nc2cc(-c3cccs3)ccc2N)cc1 [Example 40, N-[2-amino-5-(2-thienyl)phenyl]-4-{[(2-methylpropanoyl)amino]methyl}benzamide] | 16 nM | 150 nM
8 | CC(C)(C)C(=O)NCc1ccc(C(=O)Nc2cc(-c3cccs3)ccc2N)cc1 [Example 41, N-[2-amino-5-(2-thienyl)phenyl]-4-{[(2,2-dimethylpropanoyl)amino]methyl}benzamide] | 16 nM | 170 nM
9 | Nc1ccc(-c2cccs2)cc1NC(=O)c1ccc(CNC(=O)CCc2ccccc2)cc1 [Example 44, N-[2-amino-5-(2-thienyl)phenyl]-4-{[(3-phenylpropanoyl)amino]methyl}benzamide] | 24 nM | 200 nM
10 | Nc1ccc(-c2cccs2)cc1NC(=O)c1ccc(CNC(=O)C2CCCC2)cc1 [Example 46, N-[2-amino-5-(2-thienyl)phenyl]-4-{[(cyclopentylcarbonyl)amino]methyl}benzamide] | 20 nM | 140 nM
11 | Nc1ccc(-c2cccs2)cc1NC(=O)c1ccc(CNC(=O)Cc2ccccc2)cc1 [Example 47, N-[2-amino-5-(2-thienyl)phenyl]-4-{[(phenylacetyl)amino]methyl}benzamide] | 16 nM | 150 nM
12 | Nc1ccc(-c2ccccc2)cc1NC(=O)c1ccc(CNC(=O)Cc2ccccn2)cc1 [Example 50, N-(4-aminobiphenyl-3-yl)-4-{[(pyridin-2-ylacetyl)amino]methyl}benzamide] | 19 nM | 300 nM
13 | Nc1ccc(-c2ccccc2)cc1NC(=O)c1ccc(CNC(=O)Cc2cccnc2)cc1 [Example 51, N-(4-aminobiphenyl-3-yl)-4-{[(pyridin-3-ylacetyl)amino]methyl}benzamide] | 140 nM | 2100 nM
14 | Nc1ccc(-c2ccccc2)cc1NC(=O)c1ccc(CNC(=O)CCc2cccnc2)cc1 [Example 53, N-(4-aminobiphenyl-3-yl)-4-{[(3-pyridin-3-ylpropanoyl)amino]methyl}benzamide] | 16 nM | 340 nM
15 | Nc1ccc(-c2cccs2)cc1NC(=O)c1ccc(CNC(=O)Cc2ccncc2)cc1 [Example 55, N-[2-amino-5-(2-thienyl)phenyl]-4-{[(pyridin-4-ylacetyl)amino]methyl}benzamide] | 18 nM | 160 nM
16 | Nc1ccc(-c2cccs2)cc1NC(=O)c1ccc(CNC(=O)[C@@H]2CCCN2)cc1 [Example 57, (2S)-N-[4-({[2-amino-5-(2-thienyl)phenyl]amino}carbonyl)benzyl]pyrrolidine-2-carboxamide] | 18 nM | 280 nM
17 | Nc1ccc(-c2ccccc2)cc1NC(=O)c1ccc(CNC(=O)[C@@H]2CCCN2)cc1 [Example 58, (2S)-N-(4-{[(4-aminobiphenyl-3-yl)amino]carbonyl}benzyl)pyrrolidine-2-carboxamide] | 24 nM | 380 nM
18 | Nc1ccc(-c2ccccc2)cc1NC(=O)c1ccc(CNC(=O)OCc2ccccn2)cc1 [Example 59, pyridin-2-ylmethyl[(4-{[(4-aminobiphenyl-3-yl)amino]carbonyl}phenyl)methyl]carbamate] | 20 nM | 440 nM
19 | CN(C)S(=O)(=O)NCc1ccc(C(=O)Nc2cc(-c3cccs3)ccc2N)cc1 [Example 60, N-[2-amino-5-(2-thienyl)phenyl]-4-({[(dimethylamino)sulfonyl]amino}methyl)benzamide] | 17 nM | 260 nM

The next molecules have a lower IC50 [1] than those just listed; values first:

Row | IC50 [1] | IC50 [2] | SMILES
20 | 15 nM | 170 nM | Nc1ccc(-c2ccccc2)cc1NC(=O)c1ccc(CNC(=O)C2CC2)cc1 [Example 26, N-(4-aminobiphenyl-3-yl)-4-{[(cyclopropylcarbonyl)amino]methyl}benzamide]
21 | 10 nM | 150 nM | CC(C)C(=O)NCc1ccc(C(=O)Nc2cc(-c3ccccc3)ccc2N)cc1 [Example 27, N-(4-aminobiphenyl-3-yl)-4-{[(2-methylpropanoyl)amino]methyl}benzamide]
22 | 14 nM | 210 nM | CC(C)CC(=O)NCc1ccc(C(=O)Nc2cc(-c3ccccc3)ccc2N)cc1 [Example 29, N-(4-aminobiphenyl-3-yl)-4-{[(3-methylbutanoyl)amino]methyl}benzamide]
23 | 14 nM | 420 nM | Nc1ccc(-c2ccccc2)cc1NC(=O)c1ccc(CNC(=O)CCc2ccccc2)cc1 [Example 31, N-(4-aminobiphenyl-3-yl)-4-{[(3-phenylpropanoyl)amino]methyl}benzamide]
24 | 11 nM | 120 nM | CC(=O)NCc1ccc(C(=O)Nc2cc(-c3cccs3)ccc2N)cc1 [Example 36, 4-[(acetylamino)methyl]-N-[2-amino-5-(2-thienyl)phenyl]benzamide]
25 | 12 nM | 130 nM | CCC(=O)NCc1ccc(C(=O)Nc2cc(-c3cccs3)ccc2N)cc1 [Example 37, N-[2-amino-5-(2-thienyl)phenyl]-4-[(propanoylamino)methyl]benzamide]
26 | 12 nM | 150 nM | CCCC(=O)NCc1ccc(C(=O)Nc2cc(-c3cccs3)ccc2N)cc1 [Example 38, N-[2-amino-5-(2-thienyl)phenyl]-4-[(butanoylamino)methyl]benzamide]
27 | 15 nM | 96 nM | Nc1ccc(-c2cccs2)cc1NC(=O)c1ccc(CNC(=O)C2CC2)cc1 [Example 39, N-[2-amino-5-(2-thienyl)phenyl]-4-{[(cyclopropylcarbonyl)amino]methyl}benzamide]
28 | 15 nM | 120 nM | CC(C)CC(=O)NCc1ccc(C(=O)Nc2cc(-c3cccs3)ccc2N)cc1 [Example 42, N-[2-amino-5-(2-thienyl)phenyl]-4-{[(3-methylbutanoyl)amino]methyl}benzamide]
29 | 11 nM | 130 nM | Nc1ccc(-c2cccs2)cc1NC(=O)c1ccc(CNC(=O)C2CCC2)cc1 [Example 43, N-[2-amino-5-(2-thienyl)phenyl]-4-{[(cyclobutylcarbonyl)amino]methyl}benzamide]
30 | 13 nM | 110 nM | Nc1ccc(-c2cccs2)cc1NC(=O)c1ccc(CNC(=O)c2ccccc2)cc1 [Example 48, N-[2-amino-5-(2-thienyl)phenyl]-4-{[(phenylcarbonyl)amino]methyl}benzamide]
31 | 10 nM | 170 nM | Nc1ccc(-c2cccs2)cc1NC(=O)c1ccc(CNC(=O)Cc2cccnc2)cc1 [Example 49, N-[2-amino-5-(2-thienyl)phenyl]-4-{[(pyridin-3-ylacetyl)amino]methyl}benzamide]
32 | 15 nM | 250 nM | Nc1ccc(-c2ccccc2)cc1NC(=O)c1ccc(CNC(=O)Cc2ccncc2)cc1 [Example 52, N-(4-aminobiphenyl-3-yl)-4-{[(pyridin-4-ylacetyl)amino]methyl}benzamide]
33 | 12 nM | 160 nM | Nc1ccc(-c2cccs2)cc1NC(=O)c1ccc(CNC(=O)Cc2ccccn2)cc1 [Example 54, N-[2-amino-5-(2-thienyl)phenyl]-4-{[(pyridin-2-ylacetyl)amino]methyl}benzamide]
34 | 13 nM | 160 nM | Nc1ccc(-c2cccs2)cc1NC(=O)c1ccc(CNC(=O)CCc2cccnc2)cc1 [Example 56, N-[2-amino-5-(2-thienyl)phenyl]-4-{[(3-pyridin-3-ylpropanoyl)amino]methyl}benzamide]
